Measurements: patent publication US20250360235A1, “RADI[…] AND METHOD FOR RADIOLABELLING” (Telix Innovations SA, priority 2024, published 2025)

Experiment: Radiochemical purity by iTLC over time after radiolabelling
Type: physicochemical
Procedure: Table 1 to Table 5 show the results of various radiolabelling experiments on radiochemical purity and the chelation yield. The radiolabelling experiments in the tables are carried out as described in: • Example 1 for when the gallium-68 source is GE Liquid target generator and EZAG GalliaPharm generator; • Example 2 for when the gallium-68 source is IRE Galli Eo generator; • Example 3 for when the gallium-68 source is GE solid target generator;
However, the experiments were carried out with the amount of ascorbic acid as indicated in the Tables 1 to 5, and the activity as indicated in the Tables 1 to 5. Radiochemical purities were measured at various times (T0, T1, T4, T6) after the radiolabelled experiments have been conducted.
The kits of Example 1, Example 2 or Example 3, with amounts of ascorbic acid as set out in Table 7 were used in the experiments for the ascorbic acid bracketing matrix. Three strengths of [^68Ga]Ga-PSMA-11 will be tested, i.e. 50 mCi/ml, 7 mCi/ml and 1 mCi/ml. Radiochemical purity was determined at different time points (TO, T1, T4 or T6), as set out in Table 7.

[1] = 15 mg ascorbic acid, 10.0-18.4 mCi, 0.95-1.77 mCi/mL, 1 × EZAG GalliaPharm, 2 × IRE Galli Eo, average of 3, T1 (1 h)
[2] = 15 mg ascorbic acid, 10.0-18.4 mCi, 0.95-1.77 mCi/mL, 1 × EZAG GalliaPharm, 2 × IRE Galli Eo, n=3, T0
[3] = 15 mg ascorbic acid, 10.0-18.4 mCi, 0.95-1.77 mCi/mL, 1 × EZAG GalliaPharm, 2 × IRE Galli Eo, n=3, T1 (1 h)
[4] = 15 mg ascorbic acid, 23.7-47.6 mCi, 2.26-4.53 mCi/mL, 1 × EZAG GalliaPharm, 2 × IRE Galli Eo, average of 3, T0
[5] = 15 mg ascorbic acid, 23.7-47.6 mCi, 2.26-4.53 mCi/mL, 1 × EZAG GalliaPharm, 2 × IRE Galli Eo, average of 3, T4 (4 h)
[6] = 15 mg ascorbic acid, 23.7-47.6 mCi, 2.26-4.53 mCi/mL, 1 × EZAG GalliaPharm, 2 × IRE Galli Eo, n=3, T0
[7] = 15 mg ascorbic acid, 23.7-47.6 mCi, 2.26-4.53 mCi/mL, 1 × EZAG GalliaPharm, 2 × IRE Galli Eo, n=3, T4 (4 h)
[8] = 20 mg ascorbic acid, 514-544 mCi, 48.3-51.9 mCi/mL, GE Solid Target, average of 2, T0
[9] = 20 mg ascorbic acid, 514-544 mCi, 48.3-51.9 mCi/mL, GE Solid Target, average of 2, T6 (6 h)
[10] = 20 mg ascorbic acid, 514-544 mCi, 48.3-51.9 mCi/mL, GE Solid Target, n=2, T0
[11] = 20 mg ascorbic acid, 514-544 mCi, 48.3-51.9 mCi/mL, GE Solid Target, n=2, T6 (6 h)
[12] = 25 mg ascorbic acid, 19.5-20.0 mCi, 1.85-1.90 mCi/mL, EZAG GalliaPharm, average of 2, T0
[13] = 25 mg ascorbic acid, 19.5-20.0 mCi, 1.85-1.90 mCi/mL, EZAG GalliaPharm, average of 2, T1 (1 h)
[14] = 25 mg ascorbic acid, 19.5-20.0 mCi, 1.85-1.90 mCi/mL, EZAG GalliaPharm, n=2, T0
[15] = 25 mg ascorbic acid, 19.5-20.0 mCi, 1.85-1.90 mCi/mL, EZAG GalliaPharm, n=2, T1 (1 h)
[16] = 25 mg ascorbic acid, 23.3-24 mCi, 2.22-2.28 mCi/mL, IRE Galli Eo, average of 2, T0
[17] = 25 mg ascorbic acid, 23.3-24 mCi, 2.22-2.28 mCi/mL, IRE Galli Eo, average of 2, T4 (4 h)
[18] = 25 mg ascorbic acid, 23.3-24 mCi, 2.22-2.28 mCi/mL, IRE Galli Eo, n=2, T0
[19] = 25 mg ascorbic acid, 23.3-24 mCi, 2.22-2.28 mCi/mL, IRE Galli Eo, n=2, T4 (4 h)
[20] = 25 mg ascorbic acid, 46.0-46.1 mCi, 4.38-4.39 mCi/mL, EZAG GalliaPharm, average of 2, T0

Which “Radiochemical Purity (iTLC) Ga-68 PSMA-11 (%)” value (15 mg ascorbic acid, 10.0-18.4 mCi, 0.95-1.77 mCi/mL, 1 × EZAG GalliaPharm, 2 × IRE Galli Eo, average of 3, T0) does the source give for `O=C([O-])CN(CCN(CC(=O)[O-])Cc1cc(CCC(=O)NCCCCCC(=O)NCCCC[C@H](NC(=O)N[C@@H](CCC(=O)O)C(=O)O)C(=O)O)ccc1[O-])Cc1cc(CCC(=O)O)ccc1[O-].[68Ga+3].[OH3+]` [[^68Ga]PSMA-11, gallium-68 radiolabelled Glu-urea-Lys-HBED-CC (gozetotide or PSMA-11)] here?
Its value is 100%.

What about the “Radiochemical Purity (iTLC) Free and Colloidal Ga-68 (%)” value [1] of the same molecule?
The value was 0%.

And the “Radiochemical Purity (iTLC) Ga-68 PSMA-11 (%)” value [1]?
The value was 100%.

What about the “Radiochemical Purity (iTLC) Free and Colloidal Ga-68 (%)” value [2] of the same molecule?
The value was “C (C = conforms to specifications)”.

What about the “Radiochemical Purity (iTLC) Ga-68 PSMA-11 (%)” value [2] of the same molecule?
The value was “C (C = conforms to specifications)”.

What about the “Radiochemical Purity (iTLC) Free and Colloidal Ga-68 (%)” value [3] of the same molecule?
Its value is “C (C = conforms to specifications)”.

And the “Radiochemical Purity (iTLC) Ga-68 PSMA-11 (%)” value [3]?
Its value is “C (C = conforms to specifications)”.

And the “Radiochemical Purity (iTLC) Free and Colloidal Ga-68 (%)” value [4]?
The value was 0%.

And the “Radiochemical Purity (iTLC) Ga-68 PSMA-11 (%)” value [4]?
Its value is 100%.

What about the “Radiochemical Purity (iTLC) Free and Colloidal Ga-68 (%)” value [5] of the same molecule?
The value was 0%.

What about the “Radiochemical Purity (iTLC) Ga-68 PSMA-11 (%)” value [5] of the same molecule?
The value was 100%.

And the “Radiochemical Purity (iTLC) Free and Colloidal Ga-68 (%)” value [6]?
The value was “C (C = conforms to specifications)”.

And the “Radiochemical Purity (iTLC) Ga-68 PSMA-11 (%)” value [6]?
The value was “C (C = conforms to specifications)”.

What about the “Radiochemical Purity (iTLC) Free and Colloidal Ga-68 (%)” value [7] of the same molecule?
The value was “C (C = conforms to specifications)”.

And the “Radiochemical Purity (iTLC) Ga-68 PSMA-11 (%)” value [7]?
Its value is “C (C = conforms to specifications)”.

And the “Radiochemical Purity (iTLC) Free and Colloidal Ga-68 (%)” value [8]?
The value was 3%.

And the “Radiochemical Purity (iTLC) Ga-68 PSMA-11 (%)” value [8]?
The value was 97%.

And the “Radiochemical Purity (iTLC) Free and Colloidal Ga-68 (%)” value [9]?
The value was 2%.

What about the “Radiochemical Purity (iTLC) Ga-68 PSMA-11 (%)” value [9] of the same molecule?
Its value is 98%.

What about the “Radiochemical Purity (iTLC) Free and Colloidal Ga-68 (%)” value [10] of the same molecule?
The value was “C (C = conforms to specifications)”.

What about the “Radiochemical Purity (iTLC) Ga-68 PSMA-11 (%)” value [10] of the same molecule?
The value was “C (C = conforms to specifications)”.

And the “Radiochemical Purity (iTLC) Free and Colloidal Ga-68 (%)” value [11]?
Its value is “C (C = conforms to specifications)”.

What about the “Radiochemical Purity (iTLC) Ga-68 PSMA-11 (%)” value [11] of the same molecule?
The value was “C (C = conforms to specifications)”.

And the “Radiochemical Purity (iTLC) Free and Colloidal Ga-68 (%)” value [12]?
Its value is 2%.

What about the “Radiochemical Purity (iTLC) Ga-68 PSMA-11 (%)” value [12] of the same molecule?
The value was 98%.

What about the “Radiochemical Purity (iTLC) Free and Colloidal Ga-68 (%)” value [13] of the same molecule?
The value was 0%.

What about the “Radiochemical Purity (iTLC) Ga-68 PSMA-11 (%)” value [13] of the same molecule?
Its value is 100%.

What about the “Radiochemical Purity (iTLC) Free and Colloidal Ga-68 (%)” value [14] of the same molecule?
The value was “C (C = all results conform to specifications)”.

What about the “Radiochemical Purity (iTLC) Ga-68 PSMA-11 (%)” value [14] of the same molecule?
The value was “C (C = all results conform to specifications)”.

And the “Radiochemical Purity (iTLC) Free and Colloidal Ga-68 (%)” value [15]?
The value was “C (C = all results conform to specifications)”.

What about the “Radiochemical Purity (iTLC) Ga-68 PSMA-11 (%)” value [15] of the same molecule?
Its value is “C (C = all results conform to specifications)”.

And the “Radiochemical Purity (iTLC) Free and Colloidal Ga-68 (%)” value [16]?
Its value is 1%.

And the “Radiochemical Purity (iTLC) Ga-68 PSMA-11 (%)” value [16]?
Its value is 99%.

What about the “Radiochemical Purity (iTLC) Free and Colloidal Ga-68 (%)” value [17] of the same molecule?
Its value is 0%.

What about the “Radiochemical Purity (iTLC) Ga-68 PSMA-11 (%)” value [17] of the same molecule?
The value was 100%.

And the “Radiochemical Purity (iTLC) Free and Colloidal Ga-68 (%)” value [18]?
The value was “C (C = all results conform to specifications)”.

And the “Radiochemical Purity (iTLC) Ga-68 PSMA-11 (%)” value [18]?
The value was “C (C = all results conform to specifications)”.

What about the “Radiochemical Purity (iTLC) Free and Colloidal Ga-68 (%)” value [19] of the same molecule?
The value was “C (C = all results conform to specifications)”.

What about the “Radiochemical Purity (iTLC) Ga-68 PSMA-11 (%)” value [19] of the same molecule?
Its value is “C (C = all results conform to specifications)”.

What about the “Radiochemical Purity (iTLC) Free and Colloidal Ga-68 (%)” value [20] of the same molecule?
The value was 0%.

And the “Radiochemical Purity (iTLC) Ga-68 PSMA-11 (%)” value [20]?
The value was 100%.
